According to patent US9376396B2, “Acylaminocycloalkyl compounds suitable for treating disorders that respond to modulation of dopamine D3 receptor” (AbbVie Deutschland GmbH & Co. KG, priority 2012, dated 2016):

Key:
[1] = Determination of the microsomal half-life / microsomal clearance, rat; type: in vitro ADME; conditions: rat liver microsomes, 0.5 μM test substance, 0.25 mg microsomal protein/ml, NADPH, 37° C.
Description: (§1) The metabolic stability of the compounds of the invention was determined in the following assay.
(§2) The test substances were incubated in a concentration of 0.5 μM as follows:
(§3) 0.5 μM test substance are preincubated together with liver microsomes from different species (from rat, human or other species) (0.25 mg of microsomal protein/ml) in 0.05 M potassium phosphate buffer of pH 7.4 in microtiter plates at 37° C. for 5 min. The reaction is started by adding NADPH (1 mg/mL). After 0, 5, 10, 15, 20 and 30 min, 50 μl aliquots are removed, and the reaction is immediately stopped and cooled with the same volume of acetonitrile. The samples are frozen until analyzed. The remaining concentration of undegraded test substance is determined by MSMS. The half-life (T½) is determined from the gradient of the signal of test substance/unit time plot, it being possible to calculate the half-life of the test substance, assuming first order kinetics, from the decrease in the concentration of the compound with time. The microsomal clearance (mCl) is calculated from mCl=ln 2/T½/(content of microsomal protein in mg/ml)×1000 [ml/min/mg] (modified from references: Di, The Society for Biomoleculur Screening, 2003, 453-462; Obach, DMD, 1999 vol 27. N 11, 1350-1359).

[2] = Determination of the microsomal half-life / microsomal clearance, human; type: in vitro ADME; conditions: human liver microsomes, 0.5 μM test substance, 0.25 mg microsomal protein/ml, NADPH, 37° C.
Description: as §1, §2, §3

[3] = biological target: T1, human dopamine D3 receptors (Homo sapiens, UniProt P35462); assay: Receptor binding study, dopamine D3 receptor ([125I]-iodosulpride displacement); conditions: membranes of HEK-293 cells, 0.1 nM [125I]-iodosulpride, 25° C., 60 minutes
T1 construct: expressed in transfected cells; host or cells: HEK-293
T1 sequence (P35462 whole entry): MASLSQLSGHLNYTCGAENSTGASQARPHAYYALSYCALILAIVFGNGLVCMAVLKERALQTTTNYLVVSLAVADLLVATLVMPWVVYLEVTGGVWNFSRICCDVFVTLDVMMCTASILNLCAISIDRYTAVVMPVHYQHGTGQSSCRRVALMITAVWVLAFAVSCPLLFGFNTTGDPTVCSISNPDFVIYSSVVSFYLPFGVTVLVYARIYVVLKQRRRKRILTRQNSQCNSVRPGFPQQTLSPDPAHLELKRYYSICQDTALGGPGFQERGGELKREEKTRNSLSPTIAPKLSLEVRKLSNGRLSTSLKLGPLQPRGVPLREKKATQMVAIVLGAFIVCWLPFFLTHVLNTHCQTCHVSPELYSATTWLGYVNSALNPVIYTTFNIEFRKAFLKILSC
Description: (§4) The substance to be tested was either dissolved in methanol/Chremophor® (BASF SE) or in dimethyl sulfoxide and then diluted with water to the desired concentration.
(§5) Each assay mixture was run in triplicate. • The incubation buffer contained 50 mM tris, 120 mM NaCl, 5 mM KCl, 2 mM CaCl2, 2 mM MgCl2 and 0.1% bovine serum albumin, 10 μM quinolone and 0.1% ascorbic acid (prepared fresh daily). […] Each assay mixture was run in triplicate. • The incubation buffer contained 50 mM tris, 120 mM NaCl, 5 mM KCl, 2 mM CaCl2, 2 mM MgCl2 and 0.1% bovine serum albumin. The buffer was adjusted to pH 7.4 with HCl. c) Measurement and Analysis: • After having been incubated at 25° C. for 60 minutes, the assay mixtures were filtered through a Whatman GF/B glass fiber filter under vacuum using a cell collecting device. The filters were transferred to scintillation viols using a filter transfer system. After 4 ml of Ultima Gold® (Packard) have been added, the samples were shaken for one hour and the radioactivity was then counted in a Beta-Counter (Packard, Tricarb 2000 or 2200CA).

[4] = biological target: T2, human dopamine D2L receptors (long isoform) (Homo sapiens, UniProt P14416); assay: Receptor binding study, dopamine D2L receptor ([125I]iodospiperone displacement), selectivity vs D3; conditions: selectivity ratio, HEK-293 membranes
T2 construct: expressed in transfected cells; host or cells: HEK-293
T2 sequence (P14416 whole entry, canonical isoform): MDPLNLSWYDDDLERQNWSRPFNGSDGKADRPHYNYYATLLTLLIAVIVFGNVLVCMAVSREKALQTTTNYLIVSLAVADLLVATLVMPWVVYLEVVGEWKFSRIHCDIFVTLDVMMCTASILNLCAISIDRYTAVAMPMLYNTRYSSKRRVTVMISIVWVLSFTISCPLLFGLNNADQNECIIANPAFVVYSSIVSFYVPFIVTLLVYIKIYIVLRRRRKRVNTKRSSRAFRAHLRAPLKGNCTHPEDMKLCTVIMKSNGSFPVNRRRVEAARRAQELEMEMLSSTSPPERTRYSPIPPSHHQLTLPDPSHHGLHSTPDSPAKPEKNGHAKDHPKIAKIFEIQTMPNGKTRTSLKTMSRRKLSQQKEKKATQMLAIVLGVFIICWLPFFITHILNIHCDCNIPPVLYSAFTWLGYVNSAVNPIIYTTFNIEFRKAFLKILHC
Description: as §4, §5

| Rat mCl [1] | Human mCl [2] | Ki [3] [nM] | D2/D3 (Ki (D2L)/Ki (D3)) [4] | Structure (SMILES) |
| --- | --- | --- | --- | --- |
| + (+: 20-120 μl min^−1 mg^−1) | + (+: 20-120 μl min^−1 mg^−1) | – | – | COCCc1cc(N2CCN(CC[C@H]3CC[C@@H](NC(C)=O)CC3)CC2)nc(C(C)(C)C)n1 [Compound 3, cis-N-[4-(2-{4-[2-tert-Butyl-6-(2-methoxy-ethyl)-pyrimidin-4-yl]-piperazin-1-yl}-ethyl)-cyclohexyl]-acetamide] |
| + (+: 20-120 μl min^−1 mg^−1) | + (+: 20-120 μl min^−1 mg^−1) | – | – | COCCc1cc(N2CCN(CC[C@H]3C[C@@H](NC(C)=O)C3)CC2)nc(C(C)(C)C)n1.O=C(O)C(F)(F)F [Compound 4a, cis-N-[3-(2-{4-[2-tert-Butyl-6-(2-methoxy-ethyl)-pyrimidin-4-yl]-piperazin-1-yl}-ethyl)-cyclobutyl]-acetamide trifluoroacetate] |
| + (+: 20-120 μl min^−1 mg^−1) | + (+: 20-120 μl min^−1 mg^−1) | < 50 | +++ (+++>50) | COCCc1cc(N2CCN(CC[C@H]3C[C@H](NC(C)=O)C3)CC2)nc(C(C)(C)C)n1.O=C(O)C(F)(F)F [Compound 4b, trans-N-[3-(2-{4-[2-tert-Butyl-6-(2-methoxy-ethyl)-pyrimidin-4-yl]-piperazin-1-yl}-ethyl)-cyclobutyl]-acetamide trifluoroacetate] |
| – | – | < 10 | ++ (++>20) | CC(=O)N[C@H]1CC[C@@H](CCN2CCN(c3cc(CCOC(F)(F)F)nc(C(C)(C)C)n3)CC2)CC1 [Compound 10a, cis N-[4-(2-{4-[2-tert-Butyl-6-(2-trifluoromethoxy-ethyl)-pyrimidin-4-yl]-piperazin-1-yl}-ethyl)-cyclohexyl]-acetamide] |
| ∘ (∘: >120 μl min^−1 mg^−1) | + (+: 20-120 μl min^−1 mg^−1) | < 10 | + (+>10) | CC(=O)N[C@H]1CC[C@H](CCN2CCN(c3cc(CCOC(F)(F)F)nc(C(C)(C)C)n3)CC2)CC1 [Compound 10b, trans N-[4-(2-{4-[2-tert-Butyl-6-(2-trifluoromethoxy-ethyl)-pyrimidin-4-yl]-piperazin-1-yl}-ethyl)-cyclohexyl]-acetamide] |
| + (+: 20-120 μl min^−1 mg^−1) | + (+: 20-120 μl min^−1 mg^−1) | < 50 | +++ (+++>50) | COCCc1cc(N2CCN(CC[C@@H]3CC[C@@H](NC(C)=O)C3)CC2)nc(C(C)(C)C)n1 [Compound 14, trans-N-[(1R,3S)-3-[2-[4-[2-tert-butyl-6-(2-methoxyethyl)pyrimidin-4-yl]piperazin-1-yl]ethyl]cyclopentyl]acetamide] |
| + (+: 20-120 μl min^−1 mg^−1) | + (+: 20-120 μl min^−1 mg^−1) | < 10 | +++ (+++>50) | COCCc1cc(N2CCN(CC[C@H]3CC[C@H](NC(C)=O)C3)CC2)nc(C(C)(C)C)n1 [Compound 15, trans-N-[(1S,3R)-3-[2-[4-[2-tert-butyl-6-(2-methoxyethyl)pyrimidin-4-yl]piperazin-1-yl]ethyl]cyclopentyl]acetamide] |
| + (+: 20-120 μl min^−1 mg^−1) | + (+: 20-120 μl min^−1 mg^−1) | < 50 | +++ (+++>50) | COCCc1cc(N2CCN(CC[C@@H]3CC[C@H](NC(C)=O)C3)CC2)nc(C(C)(C)C)n1 [Compound 16, cis-N-[(1S,3S)-3-[2-[4-[2-tert-butyl-6-(2-methoxyethyl)pyrimidin-4-yl]piperazin-1-yl]ethyl]cyclopentyl]acetamide] |

The next lines start with the molecule.

| Structure (SMILES) | Rat mCl [1] | Human mCl [2] | Ki [3] [nM] | D2/D3 (Ki (D2L)/Ki (D3)) [4] |
| --- | --- | --- | --- | --- |
| COCCc1cc(N2CCN(CC[C@H]3CC[C@H](NC(C)=O)CC3)[C@H](C)C2)nc(C(C)(C)C)n1 [Compound 5, trans-N-[4-(2-{(2R)-4-[2-tert-Butyl-6-(2-methoxy-ethyl)-pyrimidin-4-yl]-2-methyl-piperazin-1-yl}-ethyl)-cyclohexyl]-acetamide] | + (+: 20-120 μl min^−1 mg^−1) | + (+: 20-120 μl min^−1 mg^−1) | < 50 | +++ (+++>50) |
| COCCc1cc(N2CCN(CC[C@H]3CC[C@H](NC(C)=O)CC3)C[C@@H]2C)nc(C(C)(C)C)n1 [Compound 8, trans-N-[4-(2-{(3S)-4-[2-tert-Butyl-6-(2-methoxy-ethyl)-pyrimidin-4-yl]-3-methyl-piperazin-1-yl}-ethyl)-cyclohexyl]-acetamide] | + (+: 20-120 μl min^−1 mg^−1) | + (+: 20-120 μl min^−1 mg^−1) | < 10 | +++ (+++>50) |
| COCCc1cc(N2CCN(CCC3CC(NC=O)C3)CC2)nc(C(C)(C)C)n1.O=C(O)C(F)(F)F (centres unmarked) [Compound 12, N-[3-(2-{4-[2-tert-Butyl-6-(2-methoxy-ethyl)-pyrimidin-4-yl]-piperazin-1-yl}-ethyl)-cyclobutyl]-formamide trifluoroacetate] | + (+: 20-120 μl min^−1 mg^−1) | + (+: 20-120 μl min^−1 mg^−1) | < 10 | ++ (++>20) |
| COCCc1cc(N2CCN(CC[C@H]3C[C@@H](NC=O)C3)CC2)nc(C(C)(C)C)n1 [Compound 17, N-[cis-3-[2-[4-[2-tert-butyl-6-(2-methoxyethyl)pyrimidin-4-yl]piperazin-1-yl]ethyl]cyclobutyl]formamide] | + (+: 20-120 μl min^−1 mg^−1) | + (+: 20-120 μl min^−1 mg^−1) | < 50 | ++ (++>20) |
| COCCc1cc(N2CCN(CC[C@H]3C[C@H](NC=O)C3)CC2)nc(C(C)(C)C)n1 [Compound 18, N-[trans-3-[2-[4-[2-tert-butyl-6-(2-methoxyethyl)pyrimidin-4-yl]piperazin-1-yl]ethyl]cyclobutyl]formamide] | ∘ (∘: >120 μl min^−1 mg^−1) | + (+: 20-120 μl min^−1 mg^−1) | < 50 | ++ (++>20) |
| COCCc1cc(N2CCN(CC[C@H]3CC[C@H](NC=O)CC3)C[C@H]2C)nc(C(C)(C)C)n1 [Compound 19, trans-N-[4-[2-[(3R)-4-[2-tert-butyl-6-(2-methoxyethyl)pyrimidin-4-yl]-3-methyl-piperazin-1-yl]ethyl]cyclohexyl]formamide] | – | + (+: 20-120 μl min^−1 mg^−1) | < 50 | +++ (+++>50) |
| COCCc1cc(N2CCN(CC[C@H]3CC[C@H](NC=O)CC3)C[C@@H]2C)nc(C(C)(C)C)n1 [Compound 20, trans-N-[4-[2-[(3S)-4-[2-tert-butyl-6-(2-methoxyethyl)pyrimidin-4-yl]-3-methyl-piperazin-1-yl]ethyl]cyclohexyl]formamide] | + (+: 20-120 μl min^−1 mg^−1) | + (+: 20-120 μl min^−1 mg^−1) | < 10 | +++ (+++>50) |
| COCc1cc(N2CCN(CC[C@H]3CC[C@H](NC=O)CC3)CC2)nc(C(C)(C)C)n1 [Compound 21, trans-N-[4-[2-[4-[2-tert-butyl-6-(methoxymethyl)pyrimidin-4-yl]piperazin-1-yl]ethyl]cyclohexyl]formamide] | – | + (+: 20-120 μl min^−1 mg^−1) | – | – |
| CC(=O)N[C@H]1CC[C@H](CCN2CCN(c3cc(CCO)nc(C(C)(C)C)n3)C[C@H]2C)CC1 [Compound 26, trans-N-[4-[2-[(2R)-4-[2-tert-butyl-6-(2-hydroxyethyl)pyrimidin-4-yl]-2-methyl-piperazin-1-yl]ethyl]cyclohexyl]acetamide] | + (+: 20-120 μl min^−1 mg^−1) | + (+: 20-120 μl min^−1 mg^−1) | – | – |
